Test results reported in patent publication US11000033B2, “Ketone or oxime compound, and herbicide” (NISSAN CHEMICAL CORPORATION, priority 2014, dated 2021).

Columns and labels:
Lolium multiflorum Lam. = experiment: Test Example 5: herbicidal effect by foliage application, plastic box (symbol K); assay type: in vivo; conditions: 3 weeks after application
Procedure, shortened: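 Leaf-applied emulsion, water-diluted to a preset herbicide dose, on two-week-old seedlings raised in a 25° C. to 30° C. greenhouse; injury rated at 3 weeks using earlier criteria.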

| Structure (SMILES) | K: Lolium multiflorum Lam., herbicidal effect (criteria 0-5) (Lolium multiflorum Lam.; 320 g/ha) | K: Lolium multiflorum Lam., herbicidal effect grade (Lolium multiflorum Lam.; 320 g/ha) | further results |
| --- | --- | --- | --- |
| CCCON=C(C)CC1CC(O)=C(c2c(C)cc(C)cc2C)C1=O (stereo not drawn) [1-123] | 5 (Herbicidal ratio of 90% or more (almost completely withered)) |  | melting point: 123 to 126 °C |
| Cc1cc(C)c(C2=C(O)CC(CC(=NOCC(F)(F)F)C3CC3)C2=O)c(C)c1 (stereo not drawn) [1-131] | 5 (Herbicidal ratio of 90% or more (almost completely withered)) |  | melting point: 137 to 138 °C |
| COc1cc(Br)cc(C)c1C1=C(O)CC(CC(=O)C2CC2)C1=O (racemic) [14-001] |  | 5 (Herbicidal ratio of 90% or more (almost completely withered)) |  |
| CC(CC1CC(O)=C(c2c(C)cc(C)cc2C)C1=O)=NOCc1ccc(C(F)(F)F)cc1 (stereo not drawn) [1-138] | 5 (Herbicidal ratio of 90% or more (almost completely withered)) |  |  |
| CON=C(C)CC1CC(OS(=O)(=O)N(C)C)=C(c2c(C)cc(C)cc2C)C1=O (stereo not drawn) [1-122] | 5 (Herbicidal ratio of 90% or more (almost completely withered)) |  |  |
| CC(CC1CC(O)=C(c2c(C)cc(C)cc2C)C1=O)=NOCc1cccc(C(F)(F)F)c1 (stereo not drawn) [1-117] | 5 (Herbicidal ratio of 90% or more (almost completely withered)) |  |  |
| CON=C(CC1CC(OC(=O)C(C)(C)C)=C(c2c(C)cc(C)cc2OC)C1=O)C1CC1 (mixture of isomers) [13-006] |  | 5 (Herbicidal ratio of 90% or more (almost completely withered)) |  |
| CC#Cc1cc(C)c(C2=C(O)CC(CC(=NOCC(F)(F)F)C(C)C)C2=O)c(C)c1 (stereo not drawn) [9-015] |  | 5 (Herbicidal ratio of 90% or more (almost completely withered)) |  |
| CCC(=O)CC1CC(O)=C(c2c(C)cc(Br)cc2OC)C1=O (racemic) [14-002] |  | 5 (Herbicidal ratio of 90% or more (almost completely withered)) |  |
| CON=C(CC1CC(O)=C(c2c(C)cc(-c3ccccc3)cc2C)C1=O)C1CC1 (mixture of isomers) [9-028] |  | 5 (Herbicidal ratio of 90% or more (almost completely withered)) |  |
| CCC(CC1CC(O)=C(c2c(C)cc(C)cc2OC)C1=O)=NOC (mixture of isomers) [13-003] |  | 5 (Herbicidal ratio of 90% or more (almost completely withered)) |  |
| CCC(Oc1ccc2ncc(Br)cc2c1)C(=O)OC1=C(c2c(C)cc(C)cc2C)C(=O)C(CC(C)=NOC)C1 (stereo not drawn) [1-140] | 5 (Herbicidal ratio of 90% or more (almost completely withered)) |  |  |
| CON=C(CC1CC(O)=C(c2c(C)cc(-n3cc(Cl)cn3)cc2C)C1=O)C1CC1 (stereo not drawn) [9-007] |  | 5 (Herbicidal ratio of 90% or more (almost completely withered)) |  |
| CC(CC1CC(O)=C(c2c(C)cc(C)cc2C)C1=O)=NOCc1ccc(Cl)cc1 (stereo not drawn) [1-137] | 5 (Herbicidal ratio of 90% or more (almost completely withered)) |  |  |
| CC(CC1CC(O)=C(c2c(C)cc(C)cc2C)C1=O)=NOCc1ccc(F)cc1 (stereo not drawn) [1-136] | 5 (Herbicidal ratio of 90% or more (almost completely withered)) |  |  |
| CON=C(C)CC1CC(OC(=O)c2nc(C)sc2C)=C(c2c(C)cc(C)cc2C)C1=O (stereo not drawn) [1-101] | 5 (Herbicidal ratio of 90% or more (almost completely withered)) |  |  |
| CON=C(C)CC1CC(OC(=O)CSc2ccccc2)=C(c2c(C)cc(C)cc2C)C1=O (stereo not drawn) [1-134] | 5 (Herbicidal ratio of 90% or more (almost completely withered)) |  |  |
| CC(=O)CC1CC(O)=C(c2c(C)cc(C)cc2C)C1=O (stereo not drawn) [2-001, 3-hydroxy-2-mesityl-5-(2-oxopropyl)cyclopent-2-enone] |  |  | K: Lolium multiflorum Lam., herbicidal effect grade (Lolium multiflorum Lam.; 102 g/ha): 5 (Herbicidal ratio of 90% or more (almost completely withered)); melting point: 183 to 185 °C |
| CC(CC1CC(O)=C(c2c(C)cc(C)cc2C)C1=O)=NOCC(C)Br (stereo not drawn) [1-135] | 5 (Herbicidal ratio of 90% or more (almost completely withered)) |  |  |
| C=CCOC1=C(c2c(C)cc(C)cc2C)C(=O)C(CC(C)=NOC)C1 (stereo not drawn) [1-007] |  | 5 (Herbicidal ratio of 90% or more (almost completely withered)) |  |
| CC(CC1CC(OC(=O)COc2ccccc2)=C(c2c(C)cc(-c3ccc(Cl)cc3)cc2C)C1=O)=NOCC(F)(F)F (mixture of isomers) [9-027] |  | 5 (Herbicidal ratio of 90% or more (almost completely withered)) |  |
| CON=C(C)CC1CC(OC(=O)c2cc(C)on2)=C(c2c(C)cc(C)cc2C)C1=O (stereo not drawn) [1-100] | 5 (Herbicidal ratio of 90% or more (almost completely withered)) |  |  |
| CCCCCCCCS(=O)(=O)OC1=C(c2c(C)cc(C)cc2C)C(=O)C(CC(C)=NOC)C1 (stereo not drawn) [1-107] | 5 (Herbicidal ratio of 90% or more (almost completely withered)) |  |  |
| CON=C(C)CC1CC(OC(=O)c2cnoc2C2CC2)=C(c2c(C)cc(C)cc2C)C1=O (stereo not drawn) [1-103] | 5 (Herbicidal ratio of 90% or more (almost completely withered)) |  |  |
| CON=C(CC1CC(O)=C(c2c(C)cc(C)cc2C)C1=O)C(F)(F)F (stereo not drawn) [1-097] | 5 (Herbicidal ratio of 90% or more (almost completely withered)) |  | melting point: 115 to 118 °C |
| CC(CC1CC(O)=C(c2c(C)cc(-n3cc(Cl)cn3)cc2C)C1=O)=NOCC(F)(F)F (stereo not drawn) [9-010] |  | 5 (Herbicidal ratio of 90% or more (almost completely withered)) |  |
| CC(CC1CC(OC(=O)COc2ccccc2)=C(c2c(C)cc(-n3cc(Cl)cn3)cc2C)C1=O)=NOCC(F)(F)F (stereo not drawn) [9-012] |  | 5 (Herbicidal ratio of 90% or more (almost completely withered)) |  |
| CC(CC1CC(O)=C(c2c(C)cc(C)cc2C)C1=O)=NOCC#N (stereo not drawn) [1-102] | 5 (Herbicidal ratio of 90% or more (almost completely withered)) |  |  |
| CC(CC1CC(O)=C(c2c(C)cc(-c3ccc(Cl)cc3)cc2C)C1=O)=NOCC(F)(F)F (stereo not drawn) [9-024] |  | 5 (Herbicidal ratio of 90% or more (almost completely withered)) |  |
